Here are results for one molecule from patent US9840500B2, “Compounds as dual inhibitors of histone methyltransferases and DNA methyltransferases” (FUNDACIÓN PARA LA INVESTIGACIÓN MÉDICA APLICADA, priority 2014, dated 2017).

The target of experiment [1] is DNMT1 (Homo sapiens, UniProt P26358). The experiment is described as follows: DNMT1 inhibition reported in the literature. It counts as biochemical. As to conditions: read-out: IC50 against DNMT1.
The test system of experiment [2] is OCI-AML-2. As to the kind of experiment: Cell proliferation assay, OCI-AML-2 (AML). Type of experiment: cell-based. As to conditions: Homo sapiens, OCI-AML2, Table 5 comparison. The protocol: (§1) Cell proliferation was analyzed after 48 hours of in vitro treatment using the CellTiter 96 Aqueous One Solution Cell Proliferation Assay (Promega, Madison, Wis.). This is a colorimetric method for determining the number of viable cells in proliferation.
(§2) For the assay, suspension cells were cultured by triplicate at a density of 1×10^6 cells/ml in 96-well plates (100.000 cells/well, 100 μl/well), except for OCILY-3 and OCILY-10 cell lines which were cultured at a density of 0.5×10^6 cells/ml (50.000 cells/well, 100 μl/well) and for HepG2, Hep3B and PLC/PRF/5 cell ines which were cultured at a density of 3000 cells/well, 100 μl/well). Adherent cells were obtained from 80-90% confluent flasks and 100 μl of cells were seeded at a density of 5000 cells/well in 96-well plates by triplicate. Before addition of the compounds, adherent cells were allowed to attach to the bottom of the wells for 12 hours. In all cases, only the 60 inner wells were used to avoid any border effects.
(§3) After 48 hours of treatment, plates with suspension cells were centrifuged at 800 g for 10 minutes and medium was removed. The plates with adherent cells were flicked to remove medium. Then, cells were incubated with 100 ul/well of medium and 20 ul/well of CellTiter 96 Aqueous One Solution reagent. After 1-3 hours of incubation at 37° C., absorbance was measured at 490 nm in a 96-well plate reader. The background absorbance was measured in wells with only cell line medium and solution reagent. Data was calculated as a percentage of total absorbance of treated cell/absorbance of non treated cells.
(§4) Compounds 3-04 and 3-07 were tested against different solid tumour and oncohematological cell lines using the cell proliferation protocol described above.

Experiment [3] has as its system BJ human fibroblasts. The experiment is described as follows: iPSC reprogramming of BJ human fibroblasts with retroviral vectors (O:S). Type of experiment: cell-based. As to conditions: compound concentration 200 nM.
Experiment [4] deals with LAL-CUN-2. The experiment is described as follows: Cell proliferation assay, LAL-CUN-2 (ALL). Type of experiment: cell-based. The conditions noted are these: ALL; Table 5 comparison. The method, then:
as §1, §2, §3

The test system of experiment [5] is JJN3. The experiment is described as follows: Cell proliferation assay, JJN3 (MM). It counts as cell-based. The conditions noted are these: Homo sapiens, JJN-3, Table 5 comparison. The protocol: as §1, §2, §3
Experiment [6] deals with U266. The experiment is described as follows: Cell proliferation assay, U266 (MM). Type of experiment: cell-based. The conditions noted are these: Homo sapiens, U-266, Table 5 comparison. The protocol: as §1, §2, §3
Experiment [7] has as its system MV411. As to the kind of experiment: Cell proliferation assay, MV411 / MV4-11 (AML). Type of experiment: cell-based. As to conditions: Homo sapiens, MV4-11, Table 5 comparison. The method, then:
as §1, §2, §3, §4

Experiment [8] has as its system BJ human fibroblasts. As to the kind of experiment: iPSC reprogramming of BJ human fibroblasts with lentiviral vectors (O:S:K:M). Type of experiment: cell-based. The conditions noted are these: compound concentration 200 nM. An excerpt: The used reprogramming system consisted in four independent doxycycline inducible lentiviral vectors (FUW-Tet-O based vectors) coding for the human OCT4 (addgene, ref#20726), SOX2 (addgene, ref#20724), KLF4 (addgene, ref#20725) and cMYC (addgene, ref#20723) transcription factors (O:S:K:M) Vesicular Stomatitis Virus G (VSVG)-coated lentiviruses were generated in 293T cells as described previously (Tiscornia et al., Nat Protoc. 2006; 1(1):241-5.). Briefly, 293T cells (ATCC, CRL-3216) were transfected with FUW-TetO lentiviral vectors referred above along with packaging plasmids psPAX2 (addgene, ref#12260) and pMD2.G (addgene, ref#12259) under the same conditions as those disclosed by Tiscornia et al, supra. […]
• Day 2: Second infection of BJ cells (same conditions that first infection). • Day 3: Replate BJ cells in 2×175 cm^2 culture flask in fresh FCM. • Day 4: Incubate 1×175 cm^2 flask with 0.2 μM or 0.1 μM of test compound and the other flask just with FCM. Compound concentrations were selected according to the determined GI50 in BJ human fibroblasts, in order to avoid cytotoxicity. […]
Reprogramming efficiency was quantified four weeks after infection. Presence of ESC-like colonies was detected by alkaline phosphatase (AP) staining using Leukocyte Alkaline Phosphatase Kit (Sigma) according to the manufacturer's protocol.

Experiment [9] deals with CEMO-1. As to the kind of experiment: Cell proliferation assay, CEMO-1 (ALL). It counts as cell-based, human. As to conditions: Homo sapiens; ALL; Table 5 comparison.
Experiment [10] has as its target DNMT3A (Homo sapiens, UniProt Q9Y6K1). The experiment is described as follows: DNMT3A inhibition reported in the literature. It counts as biochemical. As to conditions: read-out: IC50 against DNMT3A.

Where only a bound is given, the exact number is not on record here.

DNMT3A, sequence (Q9Y6K1 whole entry, looked up, species assumed): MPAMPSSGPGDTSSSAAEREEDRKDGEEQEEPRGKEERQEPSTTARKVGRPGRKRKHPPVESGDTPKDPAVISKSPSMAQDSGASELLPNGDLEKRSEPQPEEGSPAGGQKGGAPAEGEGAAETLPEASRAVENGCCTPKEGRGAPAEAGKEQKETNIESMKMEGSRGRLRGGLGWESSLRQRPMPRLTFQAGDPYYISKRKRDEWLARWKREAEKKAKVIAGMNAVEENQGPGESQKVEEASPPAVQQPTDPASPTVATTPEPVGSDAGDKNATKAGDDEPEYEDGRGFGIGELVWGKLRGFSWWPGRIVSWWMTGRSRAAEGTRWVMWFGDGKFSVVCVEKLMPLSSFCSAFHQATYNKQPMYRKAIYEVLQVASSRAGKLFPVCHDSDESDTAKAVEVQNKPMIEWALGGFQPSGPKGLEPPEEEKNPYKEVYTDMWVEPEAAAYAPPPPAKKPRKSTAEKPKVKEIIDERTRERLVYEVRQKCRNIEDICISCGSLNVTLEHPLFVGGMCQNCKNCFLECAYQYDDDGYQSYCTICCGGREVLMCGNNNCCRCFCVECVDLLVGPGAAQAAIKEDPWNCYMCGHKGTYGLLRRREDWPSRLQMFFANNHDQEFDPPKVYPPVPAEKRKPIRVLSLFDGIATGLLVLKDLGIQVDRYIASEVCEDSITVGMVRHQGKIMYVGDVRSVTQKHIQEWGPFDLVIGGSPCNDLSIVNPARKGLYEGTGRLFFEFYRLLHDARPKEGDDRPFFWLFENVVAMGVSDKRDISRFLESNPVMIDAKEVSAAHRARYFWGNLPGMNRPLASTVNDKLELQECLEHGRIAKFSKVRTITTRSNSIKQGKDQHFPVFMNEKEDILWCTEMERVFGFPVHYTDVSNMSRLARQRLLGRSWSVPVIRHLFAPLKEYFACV
DNMT1, sequence (P26358 whole entry, species assumed): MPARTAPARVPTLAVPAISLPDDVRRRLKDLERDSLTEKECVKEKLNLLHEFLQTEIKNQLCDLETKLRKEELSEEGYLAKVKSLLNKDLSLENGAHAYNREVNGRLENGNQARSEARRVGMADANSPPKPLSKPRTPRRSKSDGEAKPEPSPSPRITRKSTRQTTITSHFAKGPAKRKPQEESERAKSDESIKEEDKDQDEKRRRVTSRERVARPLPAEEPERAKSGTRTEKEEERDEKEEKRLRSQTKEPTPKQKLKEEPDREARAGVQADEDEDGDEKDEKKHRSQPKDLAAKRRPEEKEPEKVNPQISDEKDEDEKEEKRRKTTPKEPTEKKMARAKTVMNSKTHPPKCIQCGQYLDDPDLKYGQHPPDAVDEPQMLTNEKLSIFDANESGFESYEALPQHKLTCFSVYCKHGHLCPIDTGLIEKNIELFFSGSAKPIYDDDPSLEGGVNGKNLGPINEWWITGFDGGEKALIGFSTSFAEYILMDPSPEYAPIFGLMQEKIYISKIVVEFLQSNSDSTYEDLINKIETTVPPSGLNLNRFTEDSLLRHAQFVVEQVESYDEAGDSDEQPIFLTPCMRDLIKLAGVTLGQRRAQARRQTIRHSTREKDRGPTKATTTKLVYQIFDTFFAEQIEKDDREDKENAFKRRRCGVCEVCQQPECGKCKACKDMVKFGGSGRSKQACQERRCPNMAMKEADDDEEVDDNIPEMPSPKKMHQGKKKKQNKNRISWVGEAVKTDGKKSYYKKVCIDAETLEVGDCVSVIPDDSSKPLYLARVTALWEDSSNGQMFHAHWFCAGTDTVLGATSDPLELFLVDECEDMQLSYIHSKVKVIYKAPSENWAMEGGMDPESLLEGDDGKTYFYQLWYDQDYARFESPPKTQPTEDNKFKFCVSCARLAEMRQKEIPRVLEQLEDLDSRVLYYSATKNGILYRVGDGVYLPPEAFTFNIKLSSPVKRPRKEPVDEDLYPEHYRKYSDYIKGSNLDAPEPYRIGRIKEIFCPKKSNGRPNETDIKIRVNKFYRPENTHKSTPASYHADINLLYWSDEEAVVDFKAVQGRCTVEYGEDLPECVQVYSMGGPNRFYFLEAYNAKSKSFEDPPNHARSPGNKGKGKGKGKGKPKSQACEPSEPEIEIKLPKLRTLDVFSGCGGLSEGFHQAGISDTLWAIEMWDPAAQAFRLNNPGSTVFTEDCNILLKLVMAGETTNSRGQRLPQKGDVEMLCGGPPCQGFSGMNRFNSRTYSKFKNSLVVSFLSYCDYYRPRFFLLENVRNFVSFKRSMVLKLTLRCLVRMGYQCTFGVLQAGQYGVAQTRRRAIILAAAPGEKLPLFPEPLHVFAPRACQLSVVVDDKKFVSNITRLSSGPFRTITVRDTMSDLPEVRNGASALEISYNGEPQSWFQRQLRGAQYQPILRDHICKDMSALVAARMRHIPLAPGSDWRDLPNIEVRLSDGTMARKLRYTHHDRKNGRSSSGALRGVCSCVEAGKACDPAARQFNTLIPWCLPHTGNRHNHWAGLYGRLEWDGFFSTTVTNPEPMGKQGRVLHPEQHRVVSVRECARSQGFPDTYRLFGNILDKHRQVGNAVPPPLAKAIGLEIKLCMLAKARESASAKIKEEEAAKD

`COc1cc2nc(N3CCCN(C)CC3)nc(NC3CCN(Cc4ccccc4)CC3)c2cc1OC` [BIX01294, N-(1-benzyl-4-piperidyl)-6,7-dimethoxy-2-(4-methyl-1,4-diazepan-1-yl)quinazolin-4-amine]: the IC50 in experiment [1] and in experiment [10] was > 100 µM throughout. For the same molecule, the GI50 in experiment [2] was 1 to 10 µM; in experiment [4], 1 to 10 µM; in experiment [5], ≥ 10 µM; in [6], ≥ 10 µM; in experiment [7] it was ≥ 10 µM; in [9], 1 to 10 µM. The “Folding respect to untreated (reprogramming efficiency, AP+ colonies)” value is 1.04 in experiment [3] and 1.29 in experiment [8].

By IC50 is commonly meant the midpoint of a concentration-inhibition curve. Broadly, the GI50 is the concentration giving 50% growth inhibition.
